Results on 1 molecule are retold here after publication PMC4281097 (Journal of Medicinal Chemistry, 2014).

The test system of data set [1] is ES cells. The following applies: read-out: GI50 in ES cells; several ES cells; cited from earlier work.
For data set [2], the target named is T1, EWS-FLI1 (Homo sapiens, UniProt Q01543+Q01844).
T1 sequence (Q01844 1-264): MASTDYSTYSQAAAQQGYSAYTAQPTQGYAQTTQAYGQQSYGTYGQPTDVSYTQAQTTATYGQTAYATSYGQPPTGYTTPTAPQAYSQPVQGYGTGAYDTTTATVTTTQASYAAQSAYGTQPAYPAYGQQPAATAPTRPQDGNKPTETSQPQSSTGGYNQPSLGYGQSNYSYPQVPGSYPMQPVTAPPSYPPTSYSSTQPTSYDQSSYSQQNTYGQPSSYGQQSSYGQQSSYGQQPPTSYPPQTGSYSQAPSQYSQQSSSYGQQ
T1 sequence (Q01543 220-452): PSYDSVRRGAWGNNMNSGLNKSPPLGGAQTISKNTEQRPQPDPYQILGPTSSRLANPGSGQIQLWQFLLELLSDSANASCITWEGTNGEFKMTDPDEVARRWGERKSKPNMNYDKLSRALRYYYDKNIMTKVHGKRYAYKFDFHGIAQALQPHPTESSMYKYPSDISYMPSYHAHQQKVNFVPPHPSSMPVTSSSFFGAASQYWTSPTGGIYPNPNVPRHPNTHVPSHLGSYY
The following applies: binding to EWS-FLI1; cited from earlier work.

Data set [3] relates to TC32 cells. The note with it: TC32 cells; cited from earlier work.
Data set [4] deals with ES orthotopic xenografts. The note with it: cited from earlier work.
Data set [5] deals with COS7 cells. In words: Cell proliferation assay. The following applies: WST, 48 h. Format: cell-based, monkey.

As usually defined, the GI50 is the concentration that inhibits growth by half. A word on the Kd: it is the concentration at which binding is half-saturated. On to `COc1ccc(C(=O)CC2(O)C(=O)Nc3c(Cl)ccc(Cl)c32)cc1` (centres unmarked) [compound 2, YK-4-279], for which the GI50 in data set [1] was 0.5 to 2 µM. Also, in data set [2], the Kd was 9.48 µM. For the same molecule, in data set [3], the “GI50 in TC32 cells” value is 0.9 µM. Also, in data set [4], the “Growth of ES orthotopic xenografts in words” value is “reduces the growth”. For the same molecule, in data set [5], the “Cytotoxicity / effect on COS7 cell proliferation in words” value is “negligible effect”.
